Where no end group is shown, it is not given here.
Columns and labels:
[1] = test system: MAPK signaling in HEK293 cells overexpressing wild-type BRAF or BRAF^G469A; assay: Cell-based synergy assay of TAT-braftide with ATP-competitive inhibitors in HEK293 cells overexpressing BRAF^WT or BRAF^G469A
Method: IC50 values were obtained from a dose-response curve (4-parameter logistic equation) in Origin, from three independent experiments. […] Western blots are representative of at least three independent experiments.
Cell lysates were subjected to immunoblotting for the indicated proteins.
HEK293 cells were plated at one million cells per 2 mL :DMEM supplemented with 10% FBS and 1% L-glutarnine. These cells were incubated at 37° C. with 5% CO2 for 24 hours or until the cells reach a confluency of 40-60%. DNA (1-3 μg) was mixed with PEI-MAX in a 1:3 ratio in Opti-MEM at RT for ˜25 minutes and added onto the cells with fresh media. After 48 hrs, the cells were washed with cold PBS, harvested, lysed with 4% SDS and homogenized. […] The cells were then washed twice with PBS, lysed as above and quantified with the BCA protein assay. Equal amounts of cell lysates were loaded for immunoblotting and then probed for relevant proteins. […] Cells were washed twice with PBS and processed as above. Protein concentrations were determined with BCA assays for immunoblotting.
The efficacy of current ATP-competitive BRAF inhibitors is limited to BRAF^V600E that signals as a monomer.

[2] = test system: BRAF^WT/G469A kinase activity in HEK293 cells; assay: Immunoblotting of HEK293 cells transiently transfected with BRAF^WT/G469A (pMEK, BRAF, MEK levels); format: cell-based; conditions: 0-100 μM, 4 hrs
Method: FIGS. 2A-2C illustrate TAT-tagged Braftide inhibits BRAF^WT/G469A kinase activity in HEK293 cells. HEK293 cells transiently transfected with BRAF^WT/G469A were treated with TAT-braftide or TAT peptide at the indicated concentrations (0, 10, 25, 50, 75, and 100 μM) for 4 hrs. Cell lysates were subjected to immunoblotting with the indicated antibodies: anti-BRAF, anti-pMEK, and anti-Actin. FIG. 2A illustrates effect of TAT-braftide on BRAF^WT/G469A kinase activity in HEK293 cells. FIG. 2B illustrates effect of TAT control peptide on BRAF^WT/G469A kinase activity in HEK293 cells. Western blots are representative of at least three independent experiments. The band intensities from the Western Blots were quantified in ImageJ. FIG. 2C illustrates confocal microscopy images of HEK293 cells treated with 25 μM braftide-Cy3 for 2 hr and stained with FLAG antibody for BRAF.
HEK293 cells were plated at one million cells per 2 mL :DMEM supplemented with 10% FBS and 1% L-glutarnine. These cells were incubated at 37° C. with 5% CO2 for 24 hours or until the cells reach a confluency of 40-60%. DNA (1-3 μg) was mixed with PEI-MAX in a 1:3 ratio in Opti-MEM at RT for ˜25 minutes and added onto the cells with fresh media. After 48 hrs, the cells were washed with cold PBS, harvested, lysed with 4% SDS and homogenized. For peptide assays, 48 hrs post-transfection, cells were treated with TAT-Braftide/TAT control in reduced serum media at the indicated concentrations for 4 hrs. The cells were then washed twice with PBS, lysed as above and quantified with the BCA protein assay. Equal amounts of cell lysates were loaded for immunoblotting and then probed for relevant proteins. […] Protein concentrations were determined with BCA assays for immunoblotting.
Braftide was conjugated with the TAT sequence ([…]; SEQ ID NO:2), a cell-penetrating peptide widely used in peptide drugs. […] The activity of BRAF was quantified by probing for phospho-MEK1/2. […] A Cy3-tagged version of braftide was synthesized and evaluated for its ability of crossing the plasma membrane using immunofluorescence experiments. […]

[3] = test system: HCT-15 cells; assay: WST cell viability assay, HCT-15; format: cell-based; conditions: 48 hr
Method: (§1) Western blots are representative of at least three independent experiments. […] Cell viability was determined through the WST assay according to manufacturer's instructions. IC50 values were obtained from a dose-response curve (4-parameter logistic equation) in Origin, from three independent experiments.
(§2) Cells were seeded onto poly-lysine coated, clear-bottomed, 96-well plates at 15000 cells per well. […] Upon 48 hr treatment, cell viability was determined through the WST cell viability assay. According to manufacturers' instructions, 10 μL of the WST reagent was added to each well and incubated at 37° C. for 4 hrs. Absorbance readings for the plate were then taken at 450 nm in a Biotek plate reader.

[4] = target: T1, BRAF^WT in HEK293 cells (Homo sapiens, UniProt P15056); assay: BRAF degradation: bortezomib rescue and cycloheximide half-life in HEK293 cells; format: cell-based; conditions: pre-treated with 0.4 μM Bortezomib 5 hr, then 75 and 100 μM peptide 4 hr
T1 construct: expressed in transfected cells; host or cells: HEK293
T1 sequence (P15056 whole entry): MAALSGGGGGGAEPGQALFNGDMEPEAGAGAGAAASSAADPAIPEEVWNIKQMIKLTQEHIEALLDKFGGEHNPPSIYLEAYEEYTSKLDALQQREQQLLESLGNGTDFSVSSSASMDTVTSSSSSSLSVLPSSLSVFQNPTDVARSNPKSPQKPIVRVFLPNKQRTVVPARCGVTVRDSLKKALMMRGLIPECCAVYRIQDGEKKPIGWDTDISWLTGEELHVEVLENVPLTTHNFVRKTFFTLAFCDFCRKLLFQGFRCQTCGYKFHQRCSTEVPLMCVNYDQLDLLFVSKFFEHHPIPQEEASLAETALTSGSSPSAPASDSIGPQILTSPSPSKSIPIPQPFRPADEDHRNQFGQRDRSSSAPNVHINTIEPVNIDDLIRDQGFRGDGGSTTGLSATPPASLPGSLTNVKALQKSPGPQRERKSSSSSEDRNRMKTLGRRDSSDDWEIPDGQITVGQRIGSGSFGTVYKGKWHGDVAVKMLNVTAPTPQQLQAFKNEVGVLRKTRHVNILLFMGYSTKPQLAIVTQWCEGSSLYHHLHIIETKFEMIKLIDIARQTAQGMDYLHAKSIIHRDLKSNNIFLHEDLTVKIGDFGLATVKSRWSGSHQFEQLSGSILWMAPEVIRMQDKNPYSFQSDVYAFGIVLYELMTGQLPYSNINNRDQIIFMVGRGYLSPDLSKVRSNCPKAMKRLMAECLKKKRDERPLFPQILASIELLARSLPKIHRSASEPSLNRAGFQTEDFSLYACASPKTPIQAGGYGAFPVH
Method: FIG. 3B illustrates quantification of BRAF protein levels after rescue with Bortezomib. […] FIG. 3D illustrates quantification of the Western Blot to determine the half-life (t,1/2) of BRAF. Western blots are representative of at least three independent experiments.
HEK293 cells transiently transfected with wild-type BRAF were treated with cycloheximide.

[5] = test system: HCT116 cells; assay: WST cell viability assay, HCT116; format: cell-based; conditions: 48 hr
Method: as §1, §2

[6] = target: T2, p61 BRAF^V600E (Homo sapiens, UniProt P15056, DEL169-380/V600E); assay: Immunoblotting of HEK293 cells transfected with p61-BRAF^V600E; format: cell-based; conditions: increasing concentrations, 4 hr
T2 construct: expressed in transfected cells; host or cells: HEK293
T2 sequence (P15056 with tags, fused parts or gaps DEL169-380/V600E): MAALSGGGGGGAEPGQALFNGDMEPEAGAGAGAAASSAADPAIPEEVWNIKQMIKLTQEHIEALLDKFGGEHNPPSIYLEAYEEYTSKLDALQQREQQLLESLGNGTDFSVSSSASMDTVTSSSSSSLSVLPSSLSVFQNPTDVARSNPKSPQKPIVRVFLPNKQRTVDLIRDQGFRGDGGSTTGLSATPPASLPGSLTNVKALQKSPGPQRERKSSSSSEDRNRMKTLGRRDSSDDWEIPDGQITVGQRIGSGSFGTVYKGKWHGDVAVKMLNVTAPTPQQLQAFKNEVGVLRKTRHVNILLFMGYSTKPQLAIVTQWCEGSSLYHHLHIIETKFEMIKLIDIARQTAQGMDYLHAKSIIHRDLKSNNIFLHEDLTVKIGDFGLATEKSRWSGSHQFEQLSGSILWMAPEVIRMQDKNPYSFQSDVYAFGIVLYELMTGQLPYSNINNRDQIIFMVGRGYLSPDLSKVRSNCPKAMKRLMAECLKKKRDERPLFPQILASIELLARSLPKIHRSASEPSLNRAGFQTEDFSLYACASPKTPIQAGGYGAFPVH

[7] = test system: MAPK pathway in the HCT116 cell line; assay: MAPK pathway inhibition in HCT116 cells (immunoblotting); format: cell-based; conditions: 0-75 μM, 4 hr; read-out: IC50 of MAPK pathway inhibition (phospho-MEK, phospho-ERK, degradation of endogenous BRAF and MEK)
Method: as §1

[8] = dabrafenib alone, wild-type BRAF, 1 hr

Compound: CC(C)(C)c1nc(-c2cccc(NS(=O)(=O)c3c(F)cccc3F)c2F)c(-c2ccnc(N)n2)s1 [dabrafenib, N-{3-[5-(2-aminopyrimidin-4-yl)-2-tert-butyl-1,3-thiazol-4-yl]-2-fluorophenyl}-2,6-difluorobenzenesulfonamide]
- concentration at which dabrafenib performed as an inhibitor [1, 8]: above 10 μM
- effect on MAPK signaling at lower concentrations [1, 8]: activated the MAPK signaling at lower concentrations

Compound: CCCS(=O)(=O)Nc1ccc(F)c(C(=O)c2c[nH]c3ncc(-c4ccc(Cl)cc4)cc23)c1F [vemurafenib, N-(3-{[5-(4-Chlorophenyl)-1H-pyrrolo[2,3-b]pyridin-3-yl]carbonyl}-2,4-difluorophenyl)propane-1-sulfonamide]
- synergy with braftide ([1]; braftide 75 μM 2 hr, then vemurafenib 1 hr): same synergy effect between vemurafenib and braftide was validated

Compound: Braftide conjugated with the TAT sequence (GRKKRRQRRRPQ; SEQ ID NO:2), a cell-penetrating peptide (GRKKRRQRRRPQTRHVNILLFM; also: possible unspecified modification flagged (lipid/PEG, unknown token)) [TAT-braftide]
- activity of BRAF (phospho-MEK1/2) [2]: significantly reduced the activity of BRAF in a dose-dependent manner
- protein levels of overexpressed BRAF and endogenous MEK1 [2]: markedly decreased in a dose-dependent manner
- EC50 ([3]; WST assay, read-out: EC50 of inhibition of cell growth, HCT-15): 9 µM
- kinase activity of BRAF after proteasome inhibition [4]: still successfully inhibited the kinase activity of BRAF
- EC50 ([5]; WST assay, read-out: EC50 of inhibition of cell growth, HCT116): 5 µM
- pMEK and pERK levels [6]: A decrease in both pMEK and pERK levels was observed
- protein level of p61 [6]: not affected as dramatically as wild-type BRAF
- IC50 [7]: < 10 µM

Compound: GRKKRRQRRRPQ [TAT peptide, cell-penetrating peptide used as the negative control, reference compound]
- activity of BRAF (phospho-MEK1/2) [2]: no inhibition effect was observed
- cell death, HCT-15 ([3]; at concentrations up to 100 μM): no cell death was observed
- cell death, HCT116 ([5]; at concentrations up to 100 μM): no cell death was observed
